In general, EC50 refers to the concentration giving half of the maximal effect. Usually IC50 stands for the concentration needed to halve the response being measured. Read a high IC50 as lower potency.

This passage reports EC50, IC50 and Activity results from ChEMBL document CHEMBL5625231, “Targeting autophagy with small-molecule activators for potential therapeutic purposes” (Eur J Med Chem, 2023).

One test has as its target Forkhead box protein O1 (Homo sapiens, UniProt Q12778). The test is described as follows: Activation of FoxO1(unknown origin).
The nature of test [1]: Activation of AMPK in rat hepatocyte using SAMS as substrate incubated for 30 mins in presence of [gamma-33P]ATP. Type of test: cell-based.
The subject of another test is MDA-MB-231. The test is described as follows: Antiproliferative activity against human MDA-MB-231 cells assessed reduction in cell viability incubated for 24 hrs by MTT assay. The format is functional, cell-based. The settings on record: MDA-MB-231, 24 h. For orientation: Tetrazolium assays rely on reduction of a dye to a coloured formazan, in cell work by metabolically active cells.

Test [2] deals with T1, Serine/threonine-protein kinase ULK1 (Homo sapiens) (UniProt O75385).
T1 sequence (whole entry): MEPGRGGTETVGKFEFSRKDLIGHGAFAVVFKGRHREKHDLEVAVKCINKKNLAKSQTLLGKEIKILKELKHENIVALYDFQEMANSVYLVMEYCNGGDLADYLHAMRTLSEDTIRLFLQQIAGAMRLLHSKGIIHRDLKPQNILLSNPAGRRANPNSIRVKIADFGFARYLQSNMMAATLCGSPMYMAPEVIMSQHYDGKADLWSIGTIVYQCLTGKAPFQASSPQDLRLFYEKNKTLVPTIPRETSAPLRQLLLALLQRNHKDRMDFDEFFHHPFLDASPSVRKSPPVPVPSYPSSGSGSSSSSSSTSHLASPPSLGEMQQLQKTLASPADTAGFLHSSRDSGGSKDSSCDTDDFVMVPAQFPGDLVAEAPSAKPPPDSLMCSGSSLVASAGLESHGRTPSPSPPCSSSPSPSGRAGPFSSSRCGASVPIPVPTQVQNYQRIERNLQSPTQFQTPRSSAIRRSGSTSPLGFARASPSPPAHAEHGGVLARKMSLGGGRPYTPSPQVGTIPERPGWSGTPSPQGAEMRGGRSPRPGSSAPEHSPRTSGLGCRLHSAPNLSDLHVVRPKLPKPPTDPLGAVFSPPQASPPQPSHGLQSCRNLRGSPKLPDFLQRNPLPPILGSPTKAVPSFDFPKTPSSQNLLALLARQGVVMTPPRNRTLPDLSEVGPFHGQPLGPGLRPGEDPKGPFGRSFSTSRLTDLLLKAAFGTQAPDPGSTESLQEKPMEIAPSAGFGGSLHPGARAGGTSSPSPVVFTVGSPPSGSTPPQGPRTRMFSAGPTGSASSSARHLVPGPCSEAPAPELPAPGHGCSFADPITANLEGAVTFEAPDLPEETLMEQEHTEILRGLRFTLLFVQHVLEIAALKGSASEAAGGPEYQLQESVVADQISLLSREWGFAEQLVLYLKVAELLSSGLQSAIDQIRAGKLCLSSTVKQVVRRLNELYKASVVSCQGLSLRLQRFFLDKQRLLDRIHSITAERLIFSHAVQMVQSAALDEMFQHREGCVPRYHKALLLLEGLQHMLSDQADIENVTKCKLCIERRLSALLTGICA
The experiment in a line: Agonist activity at ULK1 (unknown origin) at 100 nM incubated for 60 mins in presence of ATP by ADP-glo assay relative to control. The settings on record: filed as agonist.

Another test has as its target T2, Transcription factor EB (Homo sapiens, UniProt P19484).
T2 sequence (P19484 whole entry): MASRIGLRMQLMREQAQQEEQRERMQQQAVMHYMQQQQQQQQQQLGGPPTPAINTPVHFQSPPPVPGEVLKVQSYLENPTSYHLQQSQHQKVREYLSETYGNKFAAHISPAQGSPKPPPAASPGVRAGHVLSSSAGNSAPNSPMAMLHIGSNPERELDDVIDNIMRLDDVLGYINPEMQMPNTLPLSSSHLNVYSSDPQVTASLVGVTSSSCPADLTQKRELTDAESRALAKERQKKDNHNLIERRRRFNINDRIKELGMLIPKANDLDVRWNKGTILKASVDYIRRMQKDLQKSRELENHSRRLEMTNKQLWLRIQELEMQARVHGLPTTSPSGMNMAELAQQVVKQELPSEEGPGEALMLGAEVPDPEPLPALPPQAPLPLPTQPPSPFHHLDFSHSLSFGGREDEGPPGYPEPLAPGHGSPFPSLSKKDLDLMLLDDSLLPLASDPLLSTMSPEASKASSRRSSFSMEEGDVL
The experiment in a line: Binding affinity to full length N-terminal his6-tagged human TFEB expressed in Escherichia coli by isothermal titration calorimetry analysis.

Molecules are shown by their SMILES.

Forkhead box protein O1, sequence (Q12778 whole entry): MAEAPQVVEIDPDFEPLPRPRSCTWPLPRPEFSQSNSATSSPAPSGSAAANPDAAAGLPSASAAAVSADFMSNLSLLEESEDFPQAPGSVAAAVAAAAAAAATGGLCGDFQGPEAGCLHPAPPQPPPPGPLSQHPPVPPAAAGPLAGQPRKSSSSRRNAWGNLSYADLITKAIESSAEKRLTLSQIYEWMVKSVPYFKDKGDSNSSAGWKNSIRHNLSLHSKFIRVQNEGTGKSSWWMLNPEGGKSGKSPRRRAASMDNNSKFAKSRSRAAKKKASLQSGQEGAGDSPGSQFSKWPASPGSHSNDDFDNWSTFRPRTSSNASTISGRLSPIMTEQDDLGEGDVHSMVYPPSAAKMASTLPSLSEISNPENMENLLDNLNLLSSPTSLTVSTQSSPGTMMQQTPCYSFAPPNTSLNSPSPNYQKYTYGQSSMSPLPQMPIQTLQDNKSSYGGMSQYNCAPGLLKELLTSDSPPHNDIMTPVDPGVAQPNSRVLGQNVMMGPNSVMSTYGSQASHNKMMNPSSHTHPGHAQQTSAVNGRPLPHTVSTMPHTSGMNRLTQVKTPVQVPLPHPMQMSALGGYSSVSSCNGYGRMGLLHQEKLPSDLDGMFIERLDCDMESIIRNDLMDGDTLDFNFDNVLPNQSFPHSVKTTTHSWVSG

Regarding `Cc1[nH]c2ccccc2c1CCNCc1ccc(/C=C/C(=O)NO)cc1` [PANOBINOSTAT], the EC50 on Forkhead box protein O1 came out at 0.42 µM. As for `N#Cc1c(O)c2c(-c3ccc(-c4ccccc4O)cc3)csc2[nH]c1=O`, the EC50 in test [1] was determined as 0.8 µM. On to `N#Cc1c(O)c2c(-c3ccccc3)csc2[nH]c1=O`, for which the EC50 in test [1] is 38 µM. On to `CC(C)(C)OC(=O)N1CCN(CC(OCc2ccc3ccccc3c2)c2ccc(Cl)cc2Cl)CC1` (stereo not drawn), for which 20.9 µM corresponded to half-maximal inhibition with MDA-MB-231 (IC50). Besides, the Activity in test [2] was found to be 154%.

Regarding `COC(=O)Nc1nc2cc(C(=O)c3ccc(F)cc3)ccc2[nH]1` [FLUBENDAZOLE], in the test on MDA-MB-231, the 50% inhibitory concentration (IC50) came out at 0.75 µM.

Consider `CC(C)CN(CC(=O)N1CCN(CC(OCc2ccc3ccccc3c2)c2ccc(Cl)cc2Cl)CC1)CC(C)C` (stereo not drawn), for which the Activity in test [2] turned out to be 196%. At Transcription factor EB, `COc1ccccc1/C=C/C(=O)/C=C/c1ccccc1OC` gave an EC50 of 2.17 µM.
